# Patent EP4685142A1, “TRIAZINE COMPOUND AND USE THEREOF” (Chengdu Zenitar Biomedical Technology Co., Ltd., priority 2023, dated 2024)
# Where two headings read alike, the source gives them in different places.
# Key:
# [1] = Pharmacokinetic evaluation in Balb/c mice; assay type: in vivo; conditions: mouse, in vivo, 5 mg/kg
# Source text: 4. Pharmacokinetic evaluation of compounds in Balb/c mice
# Experimental purpose: to understand pharmacokinetic properties of the compounds.
# Experimental basis: Technical Guidelines for Nonclinical Pharmacokinetic Studies of Chemical Drugs, 2014.
# Experimental protocol: the pharmacokinetic properties of the compounds were investigated via intravenous administration and intragastric administration in Balb/c mice.
# The blood drug concentration was quantitatively analyzed by LC-MS/MS, and pharmacokinetic parameters were calculated, such as peak concentration (Cmax), area under the concentration-time curve (AUC(0-t)), half-life (T1/2), clearance (CL), volume of distribution at steady state (Vdss), and bioavailability (F).
# The results of pharmacokinetic evaluation are shown in Table 5 below: Table 5 Pharmacokinetic test results of compounds in Balb/c mice
# [2] = target: T1, NLRP3 inflammasome (Homo sapiens, UniProt Q96P20); assay: Inhibitory activity of NLRP3 inflammasome in human monocytes (THP-1 cells, LPS + Nigericin, IL-1β ELISA); assay type: cell-based
# T1 construct: host or cells: THP-1 cells
# T1 sequence (Q96P20 whole entry): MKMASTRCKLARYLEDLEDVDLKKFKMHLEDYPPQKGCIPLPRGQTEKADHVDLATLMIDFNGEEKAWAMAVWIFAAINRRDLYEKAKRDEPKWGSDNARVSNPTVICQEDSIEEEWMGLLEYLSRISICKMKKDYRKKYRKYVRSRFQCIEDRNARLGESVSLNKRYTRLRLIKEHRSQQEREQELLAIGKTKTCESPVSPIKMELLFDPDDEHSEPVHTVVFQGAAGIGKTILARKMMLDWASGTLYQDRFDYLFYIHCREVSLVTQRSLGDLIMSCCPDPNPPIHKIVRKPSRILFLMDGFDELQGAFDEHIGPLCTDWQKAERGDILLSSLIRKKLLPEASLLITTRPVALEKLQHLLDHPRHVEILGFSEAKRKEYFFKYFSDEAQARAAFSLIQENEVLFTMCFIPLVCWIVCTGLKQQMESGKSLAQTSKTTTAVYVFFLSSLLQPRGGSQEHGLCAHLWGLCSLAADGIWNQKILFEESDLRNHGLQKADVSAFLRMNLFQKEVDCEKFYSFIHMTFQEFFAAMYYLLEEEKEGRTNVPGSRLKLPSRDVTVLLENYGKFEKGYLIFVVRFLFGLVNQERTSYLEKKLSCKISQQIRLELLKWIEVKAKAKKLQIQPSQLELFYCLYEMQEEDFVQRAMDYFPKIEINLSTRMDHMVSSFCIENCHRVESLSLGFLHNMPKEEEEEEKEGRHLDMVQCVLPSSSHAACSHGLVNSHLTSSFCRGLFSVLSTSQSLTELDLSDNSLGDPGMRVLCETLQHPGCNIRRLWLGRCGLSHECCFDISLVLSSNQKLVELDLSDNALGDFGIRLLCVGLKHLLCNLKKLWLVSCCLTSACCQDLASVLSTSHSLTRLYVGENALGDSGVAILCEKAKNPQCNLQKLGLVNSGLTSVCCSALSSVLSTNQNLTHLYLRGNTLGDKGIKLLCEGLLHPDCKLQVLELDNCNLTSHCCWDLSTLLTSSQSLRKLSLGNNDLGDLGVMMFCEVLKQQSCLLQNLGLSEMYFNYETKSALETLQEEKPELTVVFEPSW
# Method: 1. Determination of inhibitory activity of NLRP3 inflammasome in human monocytes
# Experimental method: THP-1 cells were cultured in RPMI culture medium containing PMA (10 µM), and then inoculated in 48-well plates at a density of 2×10^5 cells/mL, the plates were incubated overnight in a 5% CO2 incubator at 37°C. The next day, the above culture medium was replaced with Opti-MEM culture medium containing 1 µg/mL LPS. After 3 hours, the grown cells were simulated for 40 min with a drug, and then simulated for 40 min with Nigericin (10 µM), and a cell supernatant was harvested for ELISA analysis.
# Table 2 Inhibitory activity of NLRP3 inflammasome
# [3] = target: T2, hERG potassium ion channel (Homo sapiens, UniProt Q12809); assay: Inhibition of hERG potassium ion channel (CHO cells stably expressing hERG, Qpatch)
# T2 sequence (Q12809 whole entry): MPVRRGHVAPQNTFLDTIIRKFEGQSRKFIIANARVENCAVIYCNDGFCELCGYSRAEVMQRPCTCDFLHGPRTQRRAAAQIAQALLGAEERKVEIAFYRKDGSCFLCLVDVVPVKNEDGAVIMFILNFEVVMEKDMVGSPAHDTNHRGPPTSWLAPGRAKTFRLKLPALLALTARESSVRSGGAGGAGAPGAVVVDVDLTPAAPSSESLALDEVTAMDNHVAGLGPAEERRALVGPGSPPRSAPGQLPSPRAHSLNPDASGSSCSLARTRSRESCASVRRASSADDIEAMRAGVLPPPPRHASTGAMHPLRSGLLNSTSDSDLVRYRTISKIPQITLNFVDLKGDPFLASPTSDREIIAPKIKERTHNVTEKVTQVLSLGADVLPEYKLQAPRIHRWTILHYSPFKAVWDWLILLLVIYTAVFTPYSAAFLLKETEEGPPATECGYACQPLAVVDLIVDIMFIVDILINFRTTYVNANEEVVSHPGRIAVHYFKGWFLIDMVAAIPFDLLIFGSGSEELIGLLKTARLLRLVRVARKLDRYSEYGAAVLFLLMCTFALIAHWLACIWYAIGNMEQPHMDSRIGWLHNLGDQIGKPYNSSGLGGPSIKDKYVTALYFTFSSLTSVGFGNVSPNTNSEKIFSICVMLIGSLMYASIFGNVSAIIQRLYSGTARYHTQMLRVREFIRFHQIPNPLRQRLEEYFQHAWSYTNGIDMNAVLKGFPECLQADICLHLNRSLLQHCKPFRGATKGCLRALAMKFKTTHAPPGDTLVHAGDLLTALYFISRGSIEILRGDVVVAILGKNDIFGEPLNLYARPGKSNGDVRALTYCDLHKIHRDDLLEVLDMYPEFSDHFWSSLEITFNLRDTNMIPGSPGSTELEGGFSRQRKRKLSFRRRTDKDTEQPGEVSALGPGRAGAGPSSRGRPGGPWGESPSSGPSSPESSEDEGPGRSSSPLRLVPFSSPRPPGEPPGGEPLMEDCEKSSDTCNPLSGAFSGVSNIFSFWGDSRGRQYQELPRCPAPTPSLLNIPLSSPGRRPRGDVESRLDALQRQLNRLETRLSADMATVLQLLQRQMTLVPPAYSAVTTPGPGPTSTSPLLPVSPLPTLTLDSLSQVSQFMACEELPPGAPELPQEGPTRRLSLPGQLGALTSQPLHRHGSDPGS
# Method: (§1) Inhibition experiment of compounds on hERG potassium ion channel
# (§2) Cell culture and treatment: CHO cells stably expressing hERG were cultured in cell culture flasks and incubated in a 5% CO2 incubator at 37°C. When a cell density reached 60%-80%, the cell culture medium was aspirated, washed once with PBS, and then digested with Detachin. After digestion, the grown cells were neutralized in the cell culture medium, and then centrifuged, the supernatant was aspirated, the cell culture medium was added again to resuspend the grown cells, and the cell density was adjusted to 2-5×10^6 cells/mL for later use.
# (§3) Compound preparation: the compound stock solution was diluted in 100% DMSO, that is, 10 µL compound stock solution was serially diluted in 20 µL DMSO by 3 folds to obtain six concentrations. Six concentrations of the compound (4 µL for each concentration) were diluted in 396 µL extracellular fluid by 100 folds to obtain six intermediate concentrations. Six intermediate concentrations of the compound (80 µL for each concentration) were diluted in 320 µL extracellular fluid by 5 folds to obtain final concentrations to be tested. […] DMSO in a final test concentration was not more than 0.2%, and DMSO at this concentration had no effect on the hERG potassium channel. The entire dilution process for compound preparation was performed using Bravo instrument.
# (§4) Electrophysiological recording process: the processes of single-celled high-impedance sealing and whole-cell mode formation were all automatically completed by Qpatch instrument, under the whole-cell recording mode, the cells were clamped at -80 mV, before 5-second + 40 mV depolarization stimulus, the cells were given 50-millisecond - 50 mV pre-voltage, followed by repolarization to -50 mV for 5 seconds, and then returning to -80 mV. The voltage stimulus was given every 15 seconds, after 2 minutes of recording, extracellular fluid was recorded for 5 min, and then a drug was administrated, started from a lowest test concentration, each test concentration of the compound was given for 2.5 minutes, after all concentrations were given consecutively, a positive control compound Cisapride (3 µM) was given. At least 3 cells were tested for each concentration (n≥3).
# (§5) Data processing: data analysis and processing were performed using GraphPad Prism 5.0 and Excel software. IC50 values of the compounds were calculated by fitting with the following equation using GraphPad Prism 5 software: Y = Bottom + (Top−Bottom)/(1+10^(∧)((LogIC50−X)*HillSlope)); [formula] where X is the Log value of the test sample concentration, Y is an inhibition percentage at a corresponding concentration, and Bottom and Top are the minimum and maximum inhibition percentages, respectively.
# [4] = target: T2, hERG potassium ion channel
# Method: as §1, §2, §3, §4, §5
# [5] = In vivo brain-to-plasma ratio in mice; conditions: for Brain / Plasma: male mice, oral 10 mg/kg
# Method: Evaluation of in vivo brain-to-plasma ratio of compound
# Experimental purpose: to obtain the brain-to-plasma ratio of the compound
# Experimental protocol: the brain-to-plasma ratio of the compound was investigated by monitoring the content of the compound in mouse brain and plasma.
# Experimental procedure: the compound was weighed, followed by adding a small amount of DMSO and adding a sodium chloride solution for injection, to prepare a 10 mg · mL^-1 compound solution for administration. Male mice were orally administered at 10 mg · kg^-1, and whole plasma and whole brain tissue were sampled at 1 h and 6 h after administration (n=3). […] A centrifuge tube was weighed as M1, the centrifuge tube containing the whole brain tissue was weighed as M2, the centrifuge tube containing water for homogenization was weighed as M3, and the centrifuge tube after the removal of 30 µL homogenate was weighed as M4.
# Standard curve range: 10-10,000 ng·mL^-1. Content of drug in brain = measured value × 0.03 × (M3−M1)/[(M2−M1)×(M3−M4)].
# [6] = tested on: LPS-induced mice; assay: LPS-induced mouse model, survival; assay type: in vivo, Balb/c mice; conditions: for survival status of mice (mice alive) 12h / survival status of mice (mice alive) 24h / survival status of mice (mice alive) 36h / survival status of mice (mice alive) 48h / survival status of mice (mice alive) 72h: 25 mg/kg
# [7] = PO, Balb/c mice, read-out: AUC(0-t)
# [8] = PO, Balb/c mice, read-out: Cmax
# [9] = PO, Balb/c mice, read-out: T1/2 (converted)
# [10] = THP-1 cells, PMA, LPS 1 µg/mL 3 h, drug 40 min, Nigericin 10 µM 40 min, IL-1β ELISA, read-out: IC50
# [11] = male, mouse, brain/plasma, po, 10 mg/kg
# [12] = male, mouse, plasma, po, 10 mg/kg
Structure (SMILES),"AUC(0-t) [1, 7] [ng·h/mL]","Cmax [1, 8] [ng/mL]","half-life [1, 9] [h]",IC50 [2] [nM],further results
CC(C)N1CCC[C@@H](Nc2nnc(-c3ccc4sccc4c3O)n(C)c2=O)C1 [Compound 36],3320,1510,1.24,1.55,–
"CN1CCC[C@@H](Nc2nnc(-c3ccc(C(F)(F)F)cc3O)n(C)c2=O)C1 [Ref-3, reference compound]",1820,1140,0.87,–,"IC50 [2, 10]: 6.49 nM"
"CCN1C[C@H](F)C[C@@H](Nc2nnc(-c3ccc(C4CC4)cc3O)n(C)c2=O)C1 [Compound 53, 3-(4-cyclopropyl-2-hydroxyphenyl)-6-(((3R,5R)-1-ethyl-5-fluoropiperidin-3-yl)amino)-4-met hyl-1,2,4-triazin-5 (4H)-ketone]",1400,1420,3.85,18.7,–
"Cn1c(-c2ccc3sccc3c2O)nnc(N[C@@H]2CCCN(CC3CC3)C2)c1=O [Compound 8, (R)-6-((1-(cyclopropylmethyl)piperidin-3-yl)amino)-3-(4-hydroxybenzo[b]thiophen-5-yl)-4-methyl-1,2,4-triazin-5(4H)-ketone]",–,–,–,–,"20 uM Inhibition ratio [3]: 69.48%; IC50 [2, 10]: 1.92 nM"
"CC(C)n1c(-c2ccc3sccc3c2O)nnc(N[C@@H]2CCCN(C)C2)c1=O [Compound 54, (R)-3-(4-hydroxybenzo[b]thiophen-5-yl)-4-isopropyl-6-((1-methylpiperidin-3-yl)amino)-1,2,4-triazin-5(4H)-ketone]",7470,1550,4.25,–,"20 uM Inhibition ratio [4]: 7.77%; inhibitory effects on the hERG potassium ion channel (conclusion in words) [4]: Conclusion: compounds 3, 4, 5, 9, 16, 17, 24, 30, 40, 41, 42, 43, 54 and others have weak inhibitory effects on the hERG potassium ion channel, having weaker inhibitory effect than the reference compound Ref-1."
"[2H]C([2H])([2H])C([2H])([2H])N1CCC[C@@H](Nc2nnc(-c3ccc4sccc4c3O)n(C)c2=O)C1 [Compound 6, (R)-6-((1-(ethyl-d5)piperidin-3-yl)amino)-3-(4-hydroxybenzo[b]thiophen-5-yl)-4-methyl-1,2,4-triazin-5(4H)-ketone]",8300,1340,3.18,3.01,–
"CN1CCC[C@@H](Nc2nnc(-c3ccc4c(c3O)CCC4=C(F)F)n(C)c2=O)C1 [Compound 13, (R)-3-(1-(difluoromethylene)-4-hydroxy-2,3-dihydro-1H-inden-5-yl)-4-methyl-6-((1-methylpiperidin-3-yl)amino)-1,2,4-triazin-5 (4H)-ketone]",98700,11400,5.47,1.36,–
"CCN1CCC[C@@H](Nc2nnc(-c3ccc4sccc4c3O)n(CC)c2=O)C1 [Compound 12, (R)-4-ethyl-6-((1-ethylpiperidin-3-yl)amino)-3-(4-hydroxybenzo[b]thiophen-5-yl)-1,2,4-triazi n-5(4H)-ketone]",–,–,–,–,"20 uM Inhibition ratio [3]: 52.99%; Brain ([5]; 1 h): 498 ng/g; Brain ([5]; 6 h): 215 ng/g; Kp at 1 h [5, 11]: 0.13; Kp at 6 h [5, 11]: 0.13; concentration at 1 h [5, 12]: 3840 ng/mL; concentration at 6 h [5, 12]: 1700 ng/mL; AUC(0-t) ([1]; male, Balb/c, po): 12800 ng·h/mL; Cmax ([1]; male, Balb/c, po): 2740 ng/mL; half-life ([1]; male, Balb/c, po): 3.08 h; IC50 [2, 10]: 7.2 nM"
"Cc1nc(N[C@@H]2CCCC[C@H]2O)nnc1-c1ccc(C(F)(F)F)cc1O [Ref-2, reference compound]",270,246,2.6,14.7,"Brain ([5]; 1 h): 168 ng/g; Plasma ([5]; 1 h): 264 ng/mL; Plasma ([5]; 6 h): 8.27 ng/mL; Kp at 1 h ([5]; mouse, brain, po, 10 mg/kg): 0.63; Kp at 6 h ([5]; mouse, brain, po, 10 mg/kg): 0.17; 72h Survival rate ([6]; 25 mg/kg oral, 1 h before 10 mg/kg LPS i.p.): 50%; survival status of mice (mice alive) 12h ([6]; First cage (5 mice)): 5; survival status of mice (mice alive) 24h ([6]; First cage (5 mice)): 5; survival status of mice (mice alive) 36h ([6]; First cage (5 mice)): 4; survival status of mice (mice alive) 48h ([6]; First cage (5 mice)): 2; survival status of mice (mice alive) 72h ([6]; First cage (5 mice)): 2; survival status of mice (mice alive) 12h ([6]; Second cage (5 mice)): 5; survival status of mice (mice alive) 24h ([6]; Second cage (5 mice)): 4; survival status of mice (mice alive) 36h ([6]; Second cage (5 mice)): 4; survival status of mice (mice alive) 48h ([6]; Second cage (5 mice)): 3; survival status of mice (mice alive) 72h ([6]; Second cage (5 mice)): 3"
"CCN1CCC[C@@H](Nc2nnc(-c3ccc4c(c3O)CCC4=C(F)F)n(C)c2=O)C1 [Compound 2, (R)-3-(1-(difluoromethylene)-4-hydroxy-2,3-dihydro-1H-inden-5-yl)-6-((1-ethylpiperidin-3-y 1)amino)-4-methyl-1,2,4-triazin-5(4H)-ketone]",15200,2690,2.82,4.86,–
"CN1C[C@H](F)C[C@@H](Nc2nnc(-c3ccc4sc(F)cc4c3O)n(C)c2=O)C1 [Compound 52, 3-(2-fluoro-4-hydroxybenzo[b]thiophen-5-yl)-6-{[(3R,5R)-5-fluoro-1-methylpiperidin-3-yl]amino}-4-methyl-4H,5H-1,2,4-triazin-5-ketone]",21400,8570,3.16,5.06,–
"CN1CCC[C@@H](Nc2nnc(-c3ccc4sccc4c3OC(F)F)n(C)c2=O)C1 [Compound 38, (R)-3-(4-(difluoromethoxy)benzo[b]thiophen-5-yl)-4-methyl-6-((1-methylpiperidin-3-yl)amino)-1,2,4-triazin-5(4H)-ketone]",–,–,–,–,IC50 ([2]; read-out: IC50): 257 nM
"C[C@@H]1[C@H](Nc2nnc(-c3ccc4sccc4c3O)n(C)c2=O)CCCN1C [Compound 49, 6-(((2R,3R)-1,2-dimethylpiperidin-3-yl)amino)-3-(4-hydroxybenzo[b]thiophen-5-yl)-4-methy 1-1,2,4-triazin-5(4H)-ketone]",–,–,–,–,IC50 ([2]; read-out: IC50): 8.12 nM
"[2H]C([2H])([2H])n1c(-c2ccc3sccc3c2O)nnc(N[C@@H]2CCCN(CC)C2)c1=O [Compound 55, (R)-6-((1-ethylpiperidin-3-yl)amino)-3-(4-hydroxybenzo[b]thiophen-5-yl)-4-(methyl-d3)-1,2,4-triazin-5(4H)-ketone]",7450,1710,2.91,3.5,–
"COCCn1c(-c2ccc3sccc3c2O)nnc(N[C@@H]2CCCN(C)C2)c1=O [Compound 51, 3-(4-hydroxybenzo[b]thiophen-5-yl)-6-{[(3R)-1-methylpiperidin-3-yl]amino}-4-(2-methoxyethyl)-4H,5H-1,2,4-triazin-5-ketone]",9780,2940,2.39,180,–
"[2H]C([2H])([2H])N1CCC[C@@H](Nc2nnc(-c3ccc4sccc4c3O)n(C)c2=O)C1 [Compound 10, (R)-3-(4-hydroxybenzo[b]thiophen-5-yl)-4-methyl-6-((1-(methyl-d3)piperidin-3-yl)amino)-1,2,4-triazin-5(4H)-ketone]",–,–,–,–,"IC50 [2, 10]: 3.9 nM"
"C#Cc1ccc(-c2nnc(N[C@@H]3CCCC[C@H]3O)c(=O)n2C)c(O)c1 [Compound 31, 3-(4-ethynyl-2-hydroxyphenyl)-6-(((1R,2R)-2-hydroxycyclohexyl)amino)-4-methyl-1,2,4-tria zin-5(4H)-ketone]",–,–,–,–,IC50 ([2]; read-out: IC50): 3.64 nM
"CCN1CCC[C@@H](Nc2nnc(-c3ccc4sccc4c3O)n(C3CC3)c2=O)C1 [Compound 22, (R)-4-cyclopropyl-6-((1-ethylpiperidin-3-yl)amino)-3-(4-hydroxybenzo[b]thiophen-5-yl)-1,2,4-triazin-5(4H)-ketone]",–,–,–,–,IC50 ([2]; read-out: IC50): 2.57 nM
"C#Cc1ccc(-c2nnc(N[C@@H]3CCCN(CC)C3)c(=O)n2C)c(O)c1 [Compound 25, (R)-6-((1-ethylpiperidin-3-yl)amino)-3-(4-ethynyl-2-hydroxyphenyl)-4-methyl-1,2,4-triazin-5 (4H)-ketone]",–,–,–,–,"IC50 [2, 10]: 6.7 nM"
"[2H]C([2H])([2H])C([2H])([2H])N1CCC[C@@H](Nc2nnc(-c3ccc4ccccc4c3O)n(C)c2=O)C1 [Compound 7, (R)-6-((1-(ethyl-d5)piperidin-3-yl)amino)-3-(1-hydroxynaphthalen-2-yl)-4-methyl-1,2,4-triazi n-5(4H)-ketone]",–,–,–,–,IC50 ([2]; read-out: IC50): 22.1 nM
